From patent US8063204B2, “Benzothiazole and benzoxazole linked pyrrolo[2,1-c] [1, 4] benzodiazepine hybrids as novel antitumour agents and process for the preparation thereof” (Council of Scientific & Industrial Research, priority 2007, dated 2011)

Assays:
[1] = tested on: duplex-form calf thymus DNA (CT-DNA); test: Thermal denaturation studies with calf thymus DNA (DNA binding affinity); conditions: [PBD]:[DNA] molar ratio 1:5, CT-DNA 100 μM, ligand 20 μM, sodium phosphate buffer pH 7.00; for ΔTm after incubation at 37° C. for 0 h: 0 h incubation; for ΔTm after incubation at 37° C. for 18 h: 18 h incubation
Description: Compounds have been subjected to thermal denaturation studies with duplex-form calf thymus DNA (CT-DNA) using an modification of a reported procedure (Newman, M. S. Carcinog-compr. Surv. 1976, 1, 203; (b) Hecht, S. S.; Loy, M.; Hoffman, Carcinog-compr. Surv. 1976, 1, 325). Working solutions in aqueous buffer (10 mM NaH2PO4/Na2HPO4, 1 mM Na2EDTA, pH 7.00+0.01) containing CT-DNA (100 μm in phosphate) and the PBD (20 μm) have been prepared by addition of concentrated PBD solutions in DMSO to obtain a fixed [PBD]/[DNA] molar ratio of 1:5. The DNA-PBD solutions have been incubated at 37° C. for 0 and 18 h prior to analysis. Samples have been monitored at 260 nm using a Beckman DU-800 spectrophotometer fitted with high performance temperature controller, and heated at 1° C. min^−1 in the 40-110° C. range. DNA helix→coil transition temperatures (Tm) have been obtained from the maxima in the d(A260)/dT derivative plots. Drug-induced alterations in DNA melting behavior are given by: ΔTm=Tm(DNA+PBD)−Tm(DNA alone), where the Tm value for the PBD-free CT-DNA is 69.1±0.01.
The DNA binding activity for these novel C8-linked benzothiazole, benzoxazole-PBD hybrids has been examined by thermal denaturation studies using calf thymus (CT) DNA. […] The data for the compounds 9a-h is included in Table 1 for comparison.

[2] = tested on: sixty human tumour cells derived from nine cancer types; test: cells; type: cell-based; conditions: for Log10GI50 mean graph midpoint (MG_MID) / Log10LC50 mean graph midpoint (MG_MID) / Log10TGI mean graph midpoint (MG_MID): 48 h continuous drug exposure, SRB, mean over human tumour cell lines; for log10 GI50 anticancer activity, range over nine cancer cell types: range across nine cancer cell type
Description: (§1) Anticancer activity: In vitro biological activity studies were carried out at the National Cancer Institute (USA).
(§2) The compounds were evaluated for in vitro anticancer activity against sixty human tumour cells derived from nine cancer types (leukemia, non-small-cell lung, colon, CNS, melanoma, ovarian, prostate, and breast cancer) as shown in Table 3. For each compound, dose response curves for each cell line were measured at a minimum of five concentrations at 10 fold dilutions. A protocol of 48 h continuous drug exposure was used and a sulforhodamine B (SRB) protein assay was used to estimate cell viability or growth. The concentration causing 50% cell growth inhibition (GI50), total cell growth inhibition (TGI 0% growth) and 50% cell death (LC50, −50% growth) compared with the control was calculated.

Leukemia = test: NCI in vitro anticancer screen, SRB assay, leukemia panel; type: cell-based, human; conditions: average of six to nine cell lines, 48 h; for GI50: Homo sapiens, read-out: Log10 GI50 (converted)
Description: as §1, §2

Non-small-cell-lung = test: NCI in vitro anticancer screen, SRB assay, non-small-cell lung panel; type: cell-based, human; conditions: average of six to nine cell lines, 48 h; for GI50: Homo sapiens, read-out: Log10 GI50 (converted)
Description: as §1, §2

Colon = test: NCI in vitro anticancer screen, SRB assay, colon panel; type: cell-based, human; conditions: average of six to nine cell lines, 48 h; for GI50: Homo sapiens, read-out: Log10 GI50 (converted)
Description: as §1, §2

CNS = test: NCI in vitro anticancer screen, SRB assay, CNS panel; type: cell-based, human; conditions: average of six to nine cell lines, 48 h; for GI50: Homo sapiens, read-out: Log10 GI50 (converted)
Description: as §1, §2

Melanoma = test: NCI in vitro anticancer screen, SRB assay, melanoma panel; type: cell-based, human; conditions: average of six to nine cell lines, 48 h; for GI50: Homo sapiens, read-out: Log10 GI50 (converted)
Description: as §1, §2

Ovarian = test: NCI in vitro anticancer screen, SRB assay, ovarian panel; type: cell-based, human; conditions: average of six to nine cell lines, 48 h; for GI50: Homo sapiens, read-out: Log10 GI50 (converted)
Description: as §1, §2

Renal = test: NCI in vitro anticancer screen, SRB assay, renal panel; type: cell-based, human; conditions: average of six to nine cell lines, 48 h; for GI50: Homo sapiens, read-out: Log10 GI50 (converted)
Description: as §1, §2

Prostate = test: NCI in vitro anticancer screen, SRB assay, prostate panel; type: cell-based, human; conditions: average of six to nine cell lines, 48 h; for GI50: Homo sapiens, read-out: Log10 GI50 (converted)
Description: as §1, §2

Breast = test: NCI in vitro anticancer screen, SRB assay, breast panel; type: cell-based, human; conditions: average of six to nine cell lines, 48 h; for GI50: Homo sapiens, read-out: Log10 GI50 (converted)
Description: as §1, §2

[3] = against nine human tumor cell lines

Compound	ΔTm after incubation at 37° C. for 0 h [1] [°C]	ΔTm after incubation at 37° C. for 18 h [1] [°C]	Log10GI50 mean graph midpoint (MG_MID) [2]	Log10LC50 mean graph midpoint (MG_MID) [2]	Log10TGI mean graph midpoint (MG_MID) [2]	log10 GI50 anticancer activity, range over nine cancer cell types [2] [mole/lit]	GI50 (Leukemia) [nM]	GI50 (Non-small-cell-lung) [nM]	GI50 (Colon) [nM]	GI50 (CNS) [nM]	GI50 (Melanoma) [nM]	GI50 (Ovarian) [nM]	GI50 (Renal) [nM]	GI50 (Prostate) [nM]	GI50 (Breast) [nM]	also measured
COc1cc2c(cc1OCCCCCOc1ccc(-c3nc4ccccc4s3)cc1)N=C[C@@H]1CCCN1C2=O [Compound 9c, 7-Methoxy-8-{5-[4-(1,3-benzothiazol-2-yl)phenoxy]pentyl}oxy-(11aS)-1,2,3,11a-tetrahydro-5H-pyrrolo[2,1-c][1,4]benzodiazepin-5-one]	4.1	4.3	−6.15	−4.35	−5.30	−5.87 to −6.65	224	851	676	1120	692	1350	794	288	525	–
COc1cc2c(cc1OCCCCOc1ccc(-c3nc4ccccc4s3)cc1)N=C[C@@H]1CCCN1C2=O [Compound 9a, 7-Methoxy-8-{4-[4-(1,3-benzothiazol-2-yl)phenoxy]butyl}oxy-(11aS)-1,2,3,11a-tetrahydro-5H-pyrrolo[2,1-c][1,4]benzodiazepin-5-one]	0.5	0.5	−6.30	−4.75	−5.63	−6.08 to −6.73	–	–	–	–	–	–	–	–	–	LC50 (50% cell kill) ([2]; Homo sapiens, read-out: log10 LC50 mean graph midpoint value (converted)): 17800 nM; log10 GI50 mean graph midpoint value [2, 3]: −6.30 mol/lit; log10 TGI mean graph midpoint value [2, 3]: −5.63 mol/lit; Log10 GI50 (Leukemia): −6.73 mol/L; Log10 GI50 (Non-small-cell-lung): −6.12 mol/L; Log10 GI50 (Colon): −6.38 mol/L; Log10 GI50 (CNS): −6.20 mol/L; Log10 GI50 (Melanoma): −6.10 mol/L; Log10 GI50 (Ovarian): −6.08 mol/L; Log10 GI50 (Renal): −6.33 mol/L; Log10 GI50 (Prostate): −6.55 mol/L; Log10 GI50 (Breast): −6.43 mol/L
COc1cc2c(cc1O)N=CC1CCCN1C2=O (stereo not shown) [DC-81, reference compound]	0.3	0.7	–	–	–	–	–	–	–	–	–	–	–	–	–	–
COc1cc(-c2nc3ccccc3s2)ccc1OCCCCOc1cc2c(cc1OC)C(=O)N1CCC[C@H]1C=N2 [Compound 9b, 7-Methoxy-8-{4-[4-(1,3-benzothiazol-2-yl)-2-methoxyphenoxy]butyl}oxy-(11aS)-1,2,3,11a-tetrahydro-5H-pyrrolo[2,1-c][1,4]benzodiazepin-5-one]	0.5	0.5	−6.07	−4.67	−5.47	−5.85 to −6.45	398	1230	759	1020	1170	1410	851	355	646	–
COc1cc2c(cc1OCCCCCC(=O)Nc1ccc(-c3nc4ccc(F)cc4s3)cc1)N=C[C@@H]1CCCN1C2=O [Compound 9h, 7-Methoxy-8-{5-[N^1-(4-(6-fluoro-1,3-benzothiazol-2-yl)phenyl)]pentanecarboxamide}oxy-(11aS)-1,2,3,11a-tetra-hydro-5H-pyrrolo[2,1-c][1,4]benzodiazepin-5-one]	4.2	2.3	–	–	–	–	–	–	–	–	–	–	–	–	–	–
COc1cc(-c2nc3ccccc3o2)ccc1OCCCCCOc1cc2c(cc1OC)C(=O)N1CCC[C@H]1C=N2 [Compound 9f, 7-Methoxy-8-{5-[4-(1,3-benzoxazol-2-yl)-2-methoxyphenoxy]pentyl}oxy-(11aS) 1,2,3,11a-tetra-hydro-5H-pyrrolo[2,1-c][1,4]benzodiazepin-5-one]	2.1	4.2	–	–	–	–	–	–	–	–	–	–	–	–	–	–
COc1cc2c(cc1OCCCCCC(=O)Nc1ccc(-c3nc4ccccc4s3)cc1)N=C[C@@H]1CCCN1C2=O [Compound 9g, 7-Methoxy-8-{5-[N^1-(4-(1,3-benzothiazol-2-yl)phenyl)]pentanecarboxamide}oxy-(11aS)-1,2,3,11a-tetra-hydro-5H-pyrrolo[2,1-c][1,4]benzodiazepin-5-one]	4.1	4.3	–	–	–	–	–	–	–	–	–	–	–	–	–	–
COc1cc(-c2nc3ccccc3s2)ccc1OCCCCCOc1cc2c(cc1OC)C(=O)N1CCC[C@H]1C=N2 [Compound 9d, 7-Methoxy-8-{5-[4-(1,3-benzothiazol-2-yl)-2-methoxyphenoxy]pentyl}oxy-(11aS)-1,2,3,11a-tetrahydro-5H-pyrrolo[2,1-c][1,4]benzodiazepin-5-one]	6.2	6.3	−7.09	−4.37	−5.78	−6.79 to −7.51	30.9	95.5	83.2	100	83.2	162	110	33.9	56.2	–
COc1cc2c(cc1OCCCCCOc1ccc(-c3nc4ccccc4o3)cc1)N=C[C@@H]1CCCN1C2=O [Compound 9e, 7-Methoxy-8-{5-[4-(1,3-benzoxazol-2-yl)phenoxy]pentyl}oxy-(11aS) 1,2,3,11a-tetra-hydro-5H-pyrrolo[2,1-c][1,4]benzodiazepin-5-one]	0.5	0.5	–	–	–	–	–	–	–	–	–	–	–	–	–	–
